Data reported in the NIST ThermoML archive (doi:10.1021/acs.jced.8b00614).
± gives the expanded uncertainty stated by the source.

Experiments:
[1] = Liquid; for mass density: 298.2 K, 101.33 kPa, Vibrating tube method; for vapor or sublimation pressure: Chromatography
[2] = refractive index (Na D-line) (dimensionless); settings: 298.2 K; 101.33 kPa; Liquid; Standard Abbe refractometry
[3] = Boiling temperature at pressure P; settings: Liquid, Ebulliometric method (Recirculating still)

| Structure (SMILES) | mass density [1] [kg/m3] | vapor or sublimation pressure ([1]; 307.2 K) [kPa] | vapor or sublimation pressure ([1]; 317.2 K) [kPa] | vapor or sublimation pressure ([1]; 327.2 K) [kPa] | vapor or sublimation pressure ([1]; 350.2 K) [kPa] | vapor or sublimation pressure ([1]; 360.2 K) [kPa] | vapor or sublimation pressure ([1]; 370.2 K) [kPa] | refractive index [2] | Boiling temperature at pressure P ([3]; 5 kPa) [°C] | Boiling temperature at pressure P ([3]; 10 kPa) [°C] | Boiling temperature at pressure P ([3]; 20 kPa) [°C] | Boiling temperature at pressure P ([3]; 30 kPa) [°C] | Boiling temperature at pressure P ([3]; 40 kPa) [°C] | Boiling temperature at pressure P ([3]; 50 kPa) [°C] | Boiling temperature at pressure P ([3]; 60 kPa) [°C] | Boiling temperature at pressure P ([3]; 70 kPa) [°C] | Boiling temperature at pressure P ([3]; 90 kPa) [°C] | Boiling temperature at pressure P ([3]; 99.7 kPa) [°C] | Boiling temperature at pressure P ([3]; 79.9 kPa) [°C] | further results |
| --- | --- | --- | --- | --- | --- | --- | --- | --- | --- | --- | --- | --- | --- | --- | --- | --- | --- | --- | --- | --- |
| CC(C)CC(C)(C)C [2,2,4-trimethylpentane] | 687.73 ± 3.2 | 10 ± 0.8 | 15.3 ± 1.2 | 22.8 ± 1.8 | 51.6 ± 4 | 70.7 ± 5.5 | 95 ± 7.4 | 1.3891 ± 0.0036 | 19.4 ± 0.4 | 34.0 ± 0.3 | 50.7 ± 0.2 | 61.4 ± 0.2 | 69.5 ± 0.2 | 76.1 ± 0.1 | 81.8 ± 0.1 | 86.7 ± 0.1 | 95.2 ± 0.1 | 98.8 ± 0.1 |  | Boiling temperature at pressure P ([3]; 80 kPa): 91.1 ± 0.1 °C |
| COC(C)(C)C [2-methoxy-2-methylpropane] | 735.38 ± 3.2 | 47.7 ± 3.7 | 68.9 ± 5.3 | 97.1 ± 7.5 |  |  |  | 1.36632 ± 0.0036 |  |  | 13.0 ± 0.2 | 22.2 ± 0.2 | 29.5 ± 0.1 | 35.2 ± 0.1 | 40.2 ± 0.1 | 44.5 ± 0.1 | 51.8 ± 1.5 | 55.0 ± 1.5 | 48.4 ± 0.1 |  |
| CCCCCO [pentan-1-ol] | 810.9 ± 3.2 |  | 1.1 ± 0.1 | 2.1 ± 0.2 | 8 ± 0.6 | 13.3 ± 1 | 21 ± 1.6 | 1.40764 ± 0.0036 | 68.2 ± 0.6 | 81.4 ± 0.3 | 96 ± 0.2 | 105.2 ± 0.2 | 112.4 ± 0.1 | 118.2 ± 0.1 | 123.1 ± 0.1 | 127.2 ± 0.1 | 134.6 ± 1.5 | 137.7 ± 1.5 | 131.1 ± 0.1 | Boiling temperature at pressure P ([3]; 1.1 kPa): 44.2 ± 0.9 °C |
